How the values were obtained:
[1] = target: T1, IKZF1 (Homo sapiens, UniProt Q13422); test: IKZF1 Degradation Assay, HiBiT Method; assay type: cell-based; conditions: NCIH929 cells expressing HiBiT-tagged IKZF1, 6 hours, top concentration 10 μM
T1 construct: endogenously expressing IKZF1 with HiBiT fusion tag via CRISPR
Experimental: Assay 2. IKZF1 Degradation Assay, HiBiT Method
Selected compounds of this disclosure were tested in an IKZF1 degradation assay using the HiBiT Method.
RPMI no-phenol red medium and fetal bovine serum (FBS) were purchased from Gibco (Grand Island, NY, USA). Nano-Glo® HiBiT Lytic Assay System was purchased from Promega (Madison, WI, USA). […] Cell culture flasks and 384-well microplates were acquired from VWR (Radnor, PA, USA).
IKZF1 degradation was determined based on quantification of luminescent signal using Nano-Glo® HiBiT Lytic Assay kit. […] NCIH929 cells expressing HiBiT-tagged IKZF1 were added into 384-well plates in RPMI medium containing 10% FBS and 0.05 mM 2-mercaptoethanol at a cell density of 15000 cells per well. The plates were kept at 37° C. with 5% CO2 for 6 hours. Cells treated in the absence of the test compound were the negative control and wells containing media only were the positive control. After 6-hour incubation, Nano-Glo® HiBiT Lytic Assay reagents were added to the designated wells. Luminescence was acquired on EnVision® Multilabel Reader (PerkinElmer, Santa Clara, CA, USA).

[2] = target: T2, IRAK4 (Homo sapiens, UniProt Q9NWZ3); test: IRAK4 Degradation Assay, HiBiT Method; assay type: cell-based; conditions: 293T cells expressing HiBiT-tagged IRAK4, 6 hours
T2 construct: 293Tcells expressing HiBiT-tagged IRAK4 were then added into 384-well plates
T2 sequence (Q9NWZ3 1-460): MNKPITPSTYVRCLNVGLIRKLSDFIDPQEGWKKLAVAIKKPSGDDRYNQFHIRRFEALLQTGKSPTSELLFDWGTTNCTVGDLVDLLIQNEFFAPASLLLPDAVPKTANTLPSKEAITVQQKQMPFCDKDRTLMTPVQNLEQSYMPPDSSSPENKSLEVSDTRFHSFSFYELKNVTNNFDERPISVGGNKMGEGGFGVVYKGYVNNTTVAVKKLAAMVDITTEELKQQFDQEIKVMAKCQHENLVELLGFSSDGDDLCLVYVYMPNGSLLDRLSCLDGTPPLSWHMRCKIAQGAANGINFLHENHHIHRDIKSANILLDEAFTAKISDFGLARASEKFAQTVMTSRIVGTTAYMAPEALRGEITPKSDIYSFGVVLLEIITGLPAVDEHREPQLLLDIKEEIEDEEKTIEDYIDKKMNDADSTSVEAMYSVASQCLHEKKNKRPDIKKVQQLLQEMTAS
Summary of the method: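 Luminescent read-out with Nano-Glo HiBiT lytic reagent after 6 h compound exposure at 37 °C. Cells were HiBiT-IRAK4 knock-in 293T (C-terminal tag), 10,000 per well. Compounds ran as 11-point half-log dilutions from […] highest dose, duplicate wells; DMSO served as negative control.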

T1 sequence (Q96SW2 whole entry partner, the tested form may be a part): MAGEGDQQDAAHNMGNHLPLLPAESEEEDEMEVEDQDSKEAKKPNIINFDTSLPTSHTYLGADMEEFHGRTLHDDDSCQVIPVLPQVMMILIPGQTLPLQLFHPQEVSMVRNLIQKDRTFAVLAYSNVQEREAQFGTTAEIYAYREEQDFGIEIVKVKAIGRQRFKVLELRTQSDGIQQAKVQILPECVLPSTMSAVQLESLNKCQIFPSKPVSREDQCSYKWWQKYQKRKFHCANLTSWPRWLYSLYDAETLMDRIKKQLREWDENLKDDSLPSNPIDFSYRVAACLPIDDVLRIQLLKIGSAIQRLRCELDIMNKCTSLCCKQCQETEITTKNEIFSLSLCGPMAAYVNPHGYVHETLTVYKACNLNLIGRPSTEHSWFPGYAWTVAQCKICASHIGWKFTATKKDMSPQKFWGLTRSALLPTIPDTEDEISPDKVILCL
T1 sequence (Q16531 whole entry partner, the tested form may be a part): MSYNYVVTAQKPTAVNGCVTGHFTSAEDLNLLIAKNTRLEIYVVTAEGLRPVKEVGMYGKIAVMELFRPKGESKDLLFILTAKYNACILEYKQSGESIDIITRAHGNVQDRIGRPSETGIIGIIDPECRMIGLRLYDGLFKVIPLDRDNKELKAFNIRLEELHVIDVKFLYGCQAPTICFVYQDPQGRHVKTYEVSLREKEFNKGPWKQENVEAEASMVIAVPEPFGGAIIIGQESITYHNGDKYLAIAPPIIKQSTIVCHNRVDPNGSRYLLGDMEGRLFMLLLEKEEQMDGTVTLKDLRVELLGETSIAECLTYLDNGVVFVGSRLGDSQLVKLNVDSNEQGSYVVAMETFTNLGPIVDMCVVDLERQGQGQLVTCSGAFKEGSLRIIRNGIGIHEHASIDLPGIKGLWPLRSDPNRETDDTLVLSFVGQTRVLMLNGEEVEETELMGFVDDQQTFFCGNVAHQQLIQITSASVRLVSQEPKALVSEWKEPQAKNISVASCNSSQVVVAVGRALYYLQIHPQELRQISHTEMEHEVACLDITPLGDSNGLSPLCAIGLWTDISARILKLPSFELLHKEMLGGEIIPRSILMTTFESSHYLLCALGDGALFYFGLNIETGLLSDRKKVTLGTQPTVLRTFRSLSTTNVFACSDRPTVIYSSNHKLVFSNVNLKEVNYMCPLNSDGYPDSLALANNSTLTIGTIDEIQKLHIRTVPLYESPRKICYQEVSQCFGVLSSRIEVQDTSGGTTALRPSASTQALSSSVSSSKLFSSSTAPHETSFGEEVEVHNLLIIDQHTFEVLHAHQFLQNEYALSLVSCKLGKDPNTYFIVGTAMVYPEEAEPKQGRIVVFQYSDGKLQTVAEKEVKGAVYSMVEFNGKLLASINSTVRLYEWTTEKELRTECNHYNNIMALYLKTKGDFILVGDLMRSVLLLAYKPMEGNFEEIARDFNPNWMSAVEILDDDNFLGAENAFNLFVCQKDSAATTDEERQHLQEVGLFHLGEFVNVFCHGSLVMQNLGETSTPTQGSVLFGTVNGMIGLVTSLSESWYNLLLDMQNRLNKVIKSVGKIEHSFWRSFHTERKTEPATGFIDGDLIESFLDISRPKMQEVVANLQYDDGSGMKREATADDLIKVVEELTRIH
T1 sequence (Q13422 whole entry, the tested form may be a part): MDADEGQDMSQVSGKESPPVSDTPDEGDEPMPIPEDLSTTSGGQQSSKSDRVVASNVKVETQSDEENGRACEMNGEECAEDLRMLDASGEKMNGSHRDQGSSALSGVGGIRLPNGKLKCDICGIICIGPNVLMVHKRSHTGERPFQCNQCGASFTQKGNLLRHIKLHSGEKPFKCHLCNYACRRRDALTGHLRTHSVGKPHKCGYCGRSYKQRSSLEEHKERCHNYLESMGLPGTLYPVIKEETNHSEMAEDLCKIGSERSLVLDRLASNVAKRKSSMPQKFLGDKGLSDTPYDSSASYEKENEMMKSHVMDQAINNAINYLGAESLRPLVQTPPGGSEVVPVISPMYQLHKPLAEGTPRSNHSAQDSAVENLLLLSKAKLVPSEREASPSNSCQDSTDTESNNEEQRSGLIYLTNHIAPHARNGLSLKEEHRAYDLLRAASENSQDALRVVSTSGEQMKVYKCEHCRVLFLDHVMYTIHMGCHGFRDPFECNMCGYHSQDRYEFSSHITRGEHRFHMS

Row | SMILES | DC50 [1] [nM] | DC50 [2] [nM]
1 | CC(C)Oc1cc2nc(C3CCN(CC(=O)N4CCC(c5ccc(C6(F)CCC(=O)NC6=O)cc5)CC4)CC3)cn2cc1C(=O)Nc1cnn2cccnc12 (stereo not shown) [Example 98, 2-[1-[2-[4-[4-(3-fluoro-2,6-dioxo-3-piperidyl)phenyl]-1-piperidyl]-2-oxo-ethyl]-4-piperidyl]-7-isopropoxy-N-pyrazolo[1,5-a]pyrimidin-3-yl-imidazo[1,2-a]pyridine-6-carboxamide] | > 10000 | 10 to 100
2 | CC(C)Oc1cc2nn([C@H]3CC[C@H](CN4CC5(CCN(c6ncc(C7CCC(=O)NC7=O)cc6F)CC5)C4)CC3)cc2cc1C(=O)Nc1cccn([C@H]2C[C@H]2F)c1=O (stereo partly drawn) [Example 121, 2-((1r,4S)-4-((7-(5-(2,6-dioxopiperidin-3-yl)-3-fluoropyridin-2-yl)-2,7-diazaspiro[3.5]nonan-2-yl)methyl)cyclohexyl)-N-(1-((1S,2R)-2-fluorocyclopropyl)-2-oxo-1,2-dihydropyridin-3-yl)-6-isopropoxy-2H-indazole-5-carboxamide] | > 10000 | < 10
3 | CC(C)Oc1cc2nc(C3CCN(C(=O)CN4CCC(c5ccc(C6CCC(=O)NC6=O)cc5)CC4)CC3)cn2cc1C(=O)Nc1cccc(C(F)F)n1 (stereo not shown) [Example 68, N-[6-(difluoromethyl)-2-pyridyl]-2-[1-[2-[4-[4-(2,6-dioxo-3-piperidyl)phenyl]-1-piperidyl]acetyl]-4-piperidyl]-7-isopropoxy-imidazo[1,2-a]pyridine-6-carboxamide] | > 10000 | 10 to 100
4 | CC(C)Oc1cc2nn([C@H]3CC[C@H](CN4CCC(c5ccc6c(c5)n(C)c(=O)n6C5CCC(=O)NC5=O)C(F)(F)C4)CC3)cc2cc1C(=O)Nc1cccn([C@H]2C[C@H]2F)c1=O (stereo partly drawn) [Example 122, 2-((1r,4S)-4-((4-(1-(2,6-dioxopiperidin-3-yl)-3-methyl-2-oxo-2,3-dihydro-1H-benzo[d]imidazol-5-yl)-3,3-difluoropiperidin-1-yl)methyl)cyclohexyl)-N-(1-((1S,2R)-2-fluorocyclopropyl)-2-oxo-1,2-dihydropyridin-3-yl)-6-isopropoxy-2H-indazole-5-carboxamide] | > 10000 | < 10
5 | Cc1cnc2c(NC(=O)c3cn4cc([C@H]5CC[C@H](CN6CCC(c7ccc(OC8CCC(=O)NC8=O)cc7)CC6)CC5)nc4cc3OC(C)C)cnn2c1 (stereo partly shown) [Example 52, 2-[4-[[4-[4-[(2,6-dioxo-3-piperidyl)oxy]phenyl]-1-piperidyl]methyl]cyclohexyl]-7-isopropoxy-N-(6-methylpyrazolo[1,5-a]pyrimidin-3-yl)imidazo[1,2-a]pyridine-6-carboxamide] | > 10000 | < 10
6 | CC(C)Oc1cc2nn([C@H]3CC[C@H](CN4CC[C@@H](c5ccc6c(C7CCC(=O)NC7=O)nn(C)c6c5)[C@H](O)C4)CC3)cc2cc1C(=O)Nc1cccn([C@H]2C[C@H]2F)c1=O (stereo partly drawn) [Example 129, 2-((1S,4S)-4-(((3S,4S)-4-(3-(2,6-dioxopiperidin-3-yl)-1-methyl-1H-indazol-6-yl)-3-hydroxypiperidin-1-yl)methyl)cyclohexyl)-N-(1-((1S,2R)-2-fluorocyclopropyl)-2-oxo-1,2-dihydropyridin-3-yl)-6-isopropoxy-2H-indazole-5-carboxamide] | > 10000 | < 10
7 | CC(C)Oc1cc2nc(C3CCN(CC(=O)N4CCC(c5ccc(NC6CCC(=O)NC6=O)cc5)CC4)CC3)cn2cc1C(=O)Nc1cccc(C(F)F)n1 (stereo not shown) [Example 105, N-[6-(difluoromethyl)-2-pyridyl]-2-[1-[2-[4-[4-[(2,6-dioxo-3-piperidyl)amino]phenyl]-1-piperidyl]-2-oxo-ethyl]-4-piperidyl]-7-isopropoxy-imidazo[1,2-a]pyridine-6-carboxamide] | > 10000 | 10 to 100

The next lines start with the values.

Row | DC50 [1] [nM] | DC50 [2] [nM] | SMILES
8 | > 10000 | < 10 | CC(C)Oc1cc2nn([C@H]3CC[C@H](CNC4CCN(c5ncc(C6CCC(=O)NC6=O)cc5F)CC4)CC3)cc2cc1C(=O)Nc1cccn(C2CC2)c1=O (stereo partly shown) [Example 125, N-(1-cyclopropyl-2-oxo-1,2-dihydropyridin-3-yl)-2-((1r,4r)-4-(((1-(5-(2,6-dioxopiperidin-3-yl)-3-fluoropyridin-2-yl)piperidin-4-yl)amino)methyl)cyclohexyl)-6-isopropoxy-2H-indazole-5-carboxamide]
9 | > 10000 | < 10 | CC(C)Oc1cc2nn([C@H]3CC[C@H](CN4CCOC[C@H]4Cc4ccc(OC5CCC(=O)NC5=O)cc4)CC3)cc2cc1C(=O)Nc1cccn([C@H]2C[C@H]2F)c1=O (stereo partly drawn) [Example 128, 2-((1R,4S)-4-(((3R)-3-(4-((2,6-dioxopiperidin-3-yl)oxy)benzyl)morpholino)methyl)cyclohexyl)-N-(1-((1S,2R)-2-fluorocyclopropyl)-2-oxo-1,2-dihydropyridin-3-yl)-6-isopropoxy-2H-indazole-5-carboxamide]
10 | > 10000 | < 10 | CC(C)Oc1cc2nc(C3CCN(C(=O)CN4CCC(c5ccc(C6CCC(=O)NC6=O)cc5)CC4)CC3)cn2cc1C(=O)Nc1cnn2cccnc12 (stereo not shown) [Example 87, 2-[1-[2-[4-[4-(2,6-dioxo-3-piperidyl)phenyl]-1-piperidyl]acetyl]-4-piperidyl]-7-isopropoxy-N-pyrazolo[1,5-a]pyrimidin-3-yl-imidazo[1,2-a]pyridine-6-carboxamide]
11 | > 10000 | < 10 | CC(C)Oc1cc2nc(C3CCN(CC(=O)N4CCC(c5ccc(NC6CCC(=O)NC6=O)cc5)CC4)CC3)cn2cc1C(=O)Nc1cnn2cccnc12 (stereo not shown) [Example 104, 2-[1-[2-[4-[4-[(2,6-dioxo-3-piperidyl)amino]phenyl]-1-piperidyl]-2-oxo-ethyl]-4-piperidyl]-7-isopropoxy-N-pyrazolo[1,5-a]pyrimidin-3-yl-imidazo[1,2-a]pyridine-6-carboxamide]
12 | > 10000 | 10 to 100 | CC(C)Oc1cc2nc([C@H]3CC[C@H](CN4CCC(c5cc(F)c(C6CCC(=O)NC6=O)cc5F)C(F)(F)C4)CC3)cn2cc1C(=O)Nc1cnn2cccnc12 (stereo partly shown) [Example 53, 2-[4-[[4-[4-(2,6-dioxo-3-piperidyl)-2,5-difluoro-phenyl]-3,3-difluoro-1-piperidyl]methyl]cyclohexyl]-7-isopropoxy-N-pyrazolo[1,5-a]pyrimidin-3-yl-imidazo[1,2-a]pyridine-6-carboxamide]
13 | > 10000 | < 10 | CC(C)Oc1cc2nn(C3CCN(C(=O)CC4CCN(c5ccc(C6CCC(=O)NC6=O)cn5)CC4)CC3)cc2cc1C(=O)Nc1cnn2cccnc12 (stereo not shown) [Example 147, 2-(1-(2-(1-(5-(2,6-dioxopiperidin-3-yl)pyridin-2-yl)piperidin-4-yl)acetyl)piperidin-4-yl)-6-isopropoxy-N-(pyrazolo[1,5-a]pyrimidin-3-yl)-2H-indazole-5-carboxamide]
14 | > 10000 | < 10 | CC(C)Oc1cc2nn([C@H]3CC[C@H](CN4CCC(c5ccc(OC6CCC(=O)NC6=O)cc5)CC4)CC3)cc2cc1C(=O)Nc1cnn2cccnc12 (stereo partly shown) [Example 115, 2-((1r,4r)-4-((4-(4-((2,6-dioxopiperidin-3-yl)oxy)phenyl)piperidin-1-yl)methyl)cyclohexyl)-6-isopropoxy-N-(pyrazolo[1,5-a]pyrimidin-3-yl)-2H-indazole-5-carboxamide]

Source: patent US20240343733A1, “COMPOUNDS FOR TARGETING DEGRADATION OF IRAK4 PROTEINS” (BIOGEN MA INC., priority 2021, published 2024)
